In data set [1] the test system is PL. The conditions noted are these: cited from earlier work.
Data set [2] has as its target T1, α-glucosidase (AG) type I from Saccharomyces cerevisiae (Saccharomyces cerevisiae, UniProt P53341). As to the kind of experiment: biochemical. The data set is classed as biochemical. Also on record: purchased Sigma-Aldrich L-SLBX6245.
Data set [3] deals with T2, pancreatic lipase type II (PL) from porcine pancreas (Sus scrofa, UniProt P00591).
T2 construct: pancreatic lipase type II (PL) from porcine pancreas; purchased Sigma-Aldrich L-SLBD2433V; host or cells: porcine pancreas
T2 sequence (P00591 1-450): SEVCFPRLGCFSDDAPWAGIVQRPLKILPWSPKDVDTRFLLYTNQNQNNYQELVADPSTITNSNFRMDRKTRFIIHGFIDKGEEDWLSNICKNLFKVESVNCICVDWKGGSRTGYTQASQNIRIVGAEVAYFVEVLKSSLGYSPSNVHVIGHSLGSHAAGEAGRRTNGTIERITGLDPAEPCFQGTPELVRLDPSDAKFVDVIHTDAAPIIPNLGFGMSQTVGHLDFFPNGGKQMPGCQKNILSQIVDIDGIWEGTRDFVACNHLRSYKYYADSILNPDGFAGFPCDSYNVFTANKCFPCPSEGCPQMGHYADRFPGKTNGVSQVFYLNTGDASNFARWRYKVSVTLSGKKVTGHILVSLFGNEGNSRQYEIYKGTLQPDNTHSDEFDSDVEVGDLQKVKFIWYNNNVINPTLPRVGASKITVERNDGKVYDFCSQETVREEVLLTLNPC
As to the kind of experiment: PL inhibition assay. It counts as biochemical. The conditions noted are these: for IC50: evaluated range 6.25 µM–1000 µM, mean of n = 3 ± SD.

The target in data set [4] is T3, α-amylase (AA) type VI-B from porcine pancreas (Sus scrofa, UniProt P00690).
T3 sequence (P00690 16-511): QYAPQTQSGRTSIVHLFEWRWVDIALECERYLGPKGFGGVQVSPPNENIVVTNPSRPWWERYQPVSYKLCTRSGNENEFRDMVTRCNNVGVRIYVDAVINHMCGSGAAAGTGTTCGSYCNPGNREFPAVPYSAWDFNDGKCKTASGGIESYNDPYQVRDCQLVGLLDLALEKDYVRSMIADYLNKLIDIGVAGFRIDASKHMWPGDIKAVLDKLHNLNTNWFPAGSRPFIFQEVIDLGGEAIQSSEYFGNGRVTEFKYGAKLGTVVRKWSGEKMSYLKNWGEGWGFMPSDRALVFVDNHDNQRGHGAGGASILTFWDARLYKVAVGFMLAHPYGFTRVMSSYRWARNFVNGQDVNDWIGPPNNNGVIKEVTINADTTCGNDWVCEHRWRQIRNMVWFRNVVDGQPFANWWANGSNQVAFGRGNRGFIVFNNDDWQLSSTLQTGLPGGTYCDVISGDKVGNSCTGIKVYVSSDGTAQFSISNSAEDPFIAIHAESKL
As to the kind of experiment: AA inhibition assay. The conditions noted are these: for IC50: α-Amylase IC50 (µM), evaluated range 6.25 µM–1000 µM, mean of n = 3 ± SD.

Data set [5] addresses α-glucosidase. The conditions noted are these: cited from earlier work.
Data set [6] concerns the target T2, pancreatic lipase type II (PL) from porcine pancreas. As to the kind of experiment: Kinetic study on PL. The data set is classed as biochemical. The conditions noted are these: for Ki: substrate p-nitrophenyl dodecanoate.
The target of data set [7] is T1, α-glucosidase (AG) type I from Saccharomyces cerevisiae. As to the kind of experiment: biochemical.
In data set [8] the target is T3, α-amylase (AA) type VI-B from porcine pancreas. As to the kind of experiment: Kinetic study on AA. It counts as biochemical. Also on record: α-amylase (AA) type VI-B from porcine pancreas; purchased Sigma-Aldrich L-SLBP4061V; host or cells: porcine pancreas. The conditions noted are these: for Ki: substrate starch.
For data set [9], the system named is α-amylase. The conditions noted are these: cited from earlier work; for % inhibition of AA, previous studies: at a concentration of 100 µM.
In data set [10] the target is T1, α-glucosidase (AG) type I from Saccharomyces cerevisiae.
[11] abbreviates: ref 17, 37, read-out: IC50 against PL, previous studies.
The mark [12] stands for this setting: substrate p-nitrophenyl-α-D-glucopyranoside, read-out: α-Glucosidase Ki.
Where [13] appears, read: ref 39, read-out: IC50 against AG, Ryu and collaborators.
The mark [14] stands for this setting: α-Glucosidase IC50 (µM), evaluated range 6.25 µM–1000 µM, mean of n = 3 ± SD.
Setting [15] is: ref 31-34, read-out: IC50 against PL.
[16] abbreviates: ref 10, read-out: IC50 against AG, Li and collaborators.
[17] abbreviates: ref 53, read-out: IC50 against AG, Vongsak and collaborators.
Where [18] appears, read: ref 31-34, read-out: IC50 against α-amylase.

Where two headings read alike, the source gives them in different places.

T1 sequence (P53341 whole entry): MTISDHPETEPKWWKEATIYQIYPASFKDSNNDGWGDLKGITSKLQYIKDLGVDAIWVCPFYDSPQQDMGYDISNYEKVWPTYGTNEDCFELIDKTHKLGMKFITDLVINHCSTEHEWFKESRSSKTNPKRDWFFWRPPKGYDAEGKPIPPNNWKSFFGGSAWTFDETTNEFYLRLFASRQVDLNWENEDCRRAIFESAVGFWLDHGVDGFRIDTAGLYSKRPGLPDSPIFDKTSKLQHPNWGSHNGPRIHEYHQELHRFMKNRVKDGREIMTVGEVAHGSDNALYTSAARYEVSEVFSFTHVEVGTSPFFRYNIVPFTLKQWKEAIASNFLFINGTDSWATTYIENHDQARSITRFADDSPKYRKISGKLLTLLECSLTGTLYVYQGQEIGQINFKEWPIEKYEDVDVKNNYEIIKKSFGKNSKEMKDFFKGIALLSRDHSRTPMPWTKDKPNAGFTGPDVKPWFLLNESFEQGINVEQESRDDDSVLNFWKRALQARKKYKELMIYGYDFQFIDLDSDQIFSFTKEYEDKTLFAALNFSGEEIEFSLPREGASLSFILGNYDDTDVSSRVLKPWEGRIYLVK

Take `COc1c(O)cc2oc3cc4c(c(O)c3c(=O)c2c1CC=C(C)C)C=CC(C)(C)O4` [Compound 1, 9-hydroxycalabaxanthone]: the 50% inhibitory concentration (IC50) was 12 µM in data set [1] (setting [11]); 138 ± 6.8 µM in data set [3]; more than 1000 µM in data set [4]; 34.2 µM in [5] (setting [13]); 157 ± 2.1 µM in [7] (setting [14]). Also, in data set [2], the “type of inhibition of AG (in words)” value is “uncompetitive inhibitor”. Moreover, the figures for the Ki in data set [2] (setting [12]) and in data set [6] were 154 µM and 138 µM, respectively. Further, the “inhibitory activity on AA (in words)” value in data set [4] is recorded as “completely lost”. Further, the “type of inhibition against PL (in words)” value in data set [6] was “non-competitive inhibitors”.
With `CC(C)=CCc1c(O)c(CC=C(C)C)c2oc3c(O)cccc3c(=O)c2c1O` [Compound 2, 8-deoxygartanin], the 50% inhibitory concentration (IC50) in data set [1] (setting [11]) was 50 µM; in data set [3], 326 ± 7.1 µM; in data set [4], 166 ± 4.1 µM; in data set [5] (setting [13]) it was 21.5 µM; in data set [7] (setting [14]), 248 ± 4 µM. Moreover, the Ki in data set [2] (setting [12]) stood at 248 µM; in data set [8] it was 166 µM; in data set [6], 326 µM. The “type of inhibition on AA (in words)” value in data set [8] is recorded as “non-competitive type of inhibitor”. Moreover, the “type of inhibition against PL (in words)” value in [6] was “non-competitive inhibitors”.
For `CC(C)=CCc1c(O)c(CC=C(C)C)c2oc3c(O)ccc(O)c3c(=O)c2c1O` [Compound 3, gartanin], the IC50 in data set [1] (setting [11]) is 12 µM; in [3] it was 135 ± 1.5 µM; in data set [4], more than 1000 µM; in data set [5] (setting [13]), 10 µM; in [7] (setting [14]), 124 ± 8.2 µM. Also, the results for the Ki in [2] (setting [12]) and in data set [6] were 124 µM and 130 µM, respectively. Besides, in data set [6], the “type of inhibition against PL (in words)” value is listed as “uncompetitive inhibitors”.
Turning to `COc1c(O)cc2oc3cc(O)c(CC=C(C)C)c(O)c3c(=O)c2c1CC=C(C)C` [Compound 4, α-mangostin], the “% inhibition of AA, previous studies” value in data set [9] is given as 60%. Moreover, the IC50 is 29.6 µM in [9] (ref 17, read-out: IC50 against AA, previous studies); 47.3 µM in [1] (setting [11]); 5 µM in data set [1] (setting [15]); 50.6 ± 6.7 µM in data set [3]; 318 ± 4.3 µM in [4]; 10 µM in [5] (setting [16]). Also, the 50% inhibitory concentration (IC50) in [5] (setting [13]) is 5 µM; in data set [5] (setting [17]) it was 29.2 µM; in data set [7], 31.6 ± 2.6 µM. Moreover, the results for the Ki in [2], in data set [8] and in data set [6] were 31.6 µM, 240 µM and 50.6 µM, respectively. Moreover, the “type of inhibition on AA (in words)” value in data set [8] is “competitive type inhibitors”. The “type of inhibition against PL (in words)” value in data set [6] was “non-competitive inhibitors”.
In the case of `CC(C)=CCc1c(O)cc2oc3cc(O)c(O)c(CC=C(C)C)c3c(=O)c2c1O` [Compound 5, γ-mangostin], the “% inhibition of AA, previous studies” value in data set [9] is 67.3%. In addition, the IC50 is 10 µM in data set [1] (setting [15]); 67.1 ± 2.8 µM in [3]; 333 ± 4.5 µM in data set [4]; 5 µM in [5] (setting [16]); 1.5 µM in [5] (setting [13]); 4.2 µM in data set [5] (setting [17]). This molecule gave a 50% inhibitory concentration (IC50) in data set [7] (setting [14]) of 84.7 ± 6.7 µM. Moreover, the values for the inhibition constant Ki in data set [2], in [8] and in [6] were 84.7 µM, 139 µM and 57.2 µM, respectively. Moreover, the “type of inhibition on AA (in words)” value in data set [8] was “competitive type inhibitors”.
Molecule `COc1cc2oc3cc(OC)c(OC)c(CC=C(C)C)c3c(=O)c2c(O)c1CC=C(C)C` [Compound 6, fuscaxanthone C] gave a melting point of 118 to 120 °C. The “type of inhibition of AG (in words)” value in data set [2] is reported as “competitive inhibitors”. In addition, in data set [2] (setting [12]), the Ki worked out at 0.3 µM. In data set [3], the midpoint of inhibition, the IC50, lay at 69.2 ± 4.9 µM. In addition, the IC50 in [4] was 164.4 ± 0.9 µM. Also, in data set [8], the “type of inhibition on AA (in words)” value was “competitive type inhibitors” and the affinity corresponds to a Ki of 28.6 µM. In addition, in data set [6], the “type of inhibition against PL (in words)” value was “mixed inhibitors” and the Ki is 69.2 µM. This molecule had an IC50 in data set [7] (setting [14]) of 33.3 ± 4.1 µM.
As for `COc1c(O)cc2oc3cc4c(c(O)c3c(=O)c2c1CC=C(C)C)CCC(C)(C)O4` [Compound 7, 3-isomangostin], the inhibitory constant (Ki) in data set [2] (setting [12]) was 37.2 µM. The “inhibition in the catalytic activity of PL (in words)” value (shortened to “inhibition … of PL (in words)”) in data set [3] is “did not cause any inhibition”. In addition, the figures for the IC50 in [3], in [4] and in data set [7] were more than 1000 µM, more than 1000 µM and 37.2 ± 4.1 µM, respectively. Further, the “inhibitory activity on AA (in words)” value in data set [4] is reported as “completely lost”.
Take `CC1(C)CCc2c(cc3oc4cc(O)c5c(c4c(=O)c3c2O)CCC(C)(C)O5)O1` [Compound 8, BR-xanthone A]: the melting point lay within 160 to 162 °C. Further, the “inhibition in the catalytic activity of AG (in words)” value in data set [10] is given as “did not cause any inhibition”. Besides, in data set [3], the “inhibition … of PL (in words)” value is given as “did not cause any inhibition” and the IC50 is more than 1000 µM. Further, in data set [4], the “inhibitory activity on AA (in words)” value is recorded as “completely lost” and the half-maximal inhibitory concentration (IC50) was more than 1000 µM. In [7], this molecule yielded an IC50 of more than 1000 µM.
For the molecule `COc1c(O)cc2oc3cc(O)c(CCC(C)C)c(O)c3c(=O)c2c1CCC(C)C` [Compound 9, tetrahydro-α-mangostin], the figures for the Ki in data set [2], in [8] and in [6] were 34.2 µM, 90.1 µM and 405 µM, respectively. Moreover, the “type of inhibition of AG (in words)” value in data set [2] is “competitive inhibitors”. The concentration for half-maximal inhibition (IC50) in data set [3] stood at 454.6 ± 1.9 µM; in data set [4], 90.1 ± 6 µM; in [7], 34.2 ± 1.8 µM. Besides, the “type of inhibition on AA (in words)” value in [8] is “competitive type inhibitors”. Besides, in data set [6], the “type of inhibition against PL (in words)” value was “mixed inhibitors”.
Consider `CCCCCOc1cc2oc3cc(OCCCCC)c(OC)c(CC=C(C)C)c3c(=O)c2c(O)c1CC=C(C)C` [Compound 10, 3,6-di-pentoxy-α-mangostin], for which the “inhibition in the catalytic activity of AG (in words)” value in data set [10] was “did not cause any inhibition”. Besides, the “inhibition … of PL (in words)” value in data set [3] is given as “did not cause any inhibition”. Moreover, the IC50 in [3], in [4] and in data set [7] (setting [14]) was more than 1000 µM throughout.
Regarding `COc1cc2oc3c(C)c(OC)c(CC=C(C)C)c(O)c3c(=O)c2c(CC=C(C)C)c1OC` [Compound 11, 3,6-di-methoxy-4-methyl-α-mangostin], in [10], the “inhibition in the catalytic activity of AG (in words)” value is listed as “did not cause any inhibition”. Besides, the IC50 in data set [3] worked out at 59.4 ± 3.8 µM. In data set [4], the “inhibitory activity on AA (in words)” value is recorded as “completely annuls the activity” and the concentration for half-maximal inhibition (IC50) is more than 1000 µM. For the same molecule, in data set [6], the “type of inhibition against PL (in words)” value was “mixed inhibitors” and affinity was put at a Ki of 59.4 µM. The molecule also returned an IC50 in data set [7] (setting [14]) of more than 1000 µM.
As for `O=C(c1cc(O)ccc1O)c1c(O)cc(O)cc1O[C@@H]1O[C@H](CO)[C@@H](O)[C@H](O)[C@H]1O` [Garcimangophenone B, reference compound], the IC50 in data set [9] (setting [18]) is 12.2 µM.
Take “Garcimangophenones A [Garcimangophenone A, reference compound]”: the IC50 in [9] (setting [18]) was 9.3 µM.
mangoxanthone A [reference compound]: the concentration for half-maximal inhibition (IC50) is 22.7 µM in data set [9] (setting [18]) and 29.1 µM in [5] (ref 31-34, read-out: IC50 against α-glucosidase).

Values taken from article PMC9144329, “Multitarget Action of Xanthones from Garcinia mangostana against α-Amylase, α-Glucosidase and Pancreatic Lipase” (Molecules, 2022).
